Laboratory results: ChEMBL document CHEMBL1821563, “The discovery and synthesis of JNJ 31020028, a small molecule antagonist of the Neuropeptide Y Y₂ receptor” (Bioorg Med Chem Lett, 2011)

Each compound was assayed against T1, Neuropeptide Y receptor type 2 (Homo sapiens, UniProt P49146) (assay: Displacement of [125I]PYY from human NPY Y2 receptor expressed endogenously in KAN-Ts cells by scintillation counting).
T1 sequence (P49146 whole entry): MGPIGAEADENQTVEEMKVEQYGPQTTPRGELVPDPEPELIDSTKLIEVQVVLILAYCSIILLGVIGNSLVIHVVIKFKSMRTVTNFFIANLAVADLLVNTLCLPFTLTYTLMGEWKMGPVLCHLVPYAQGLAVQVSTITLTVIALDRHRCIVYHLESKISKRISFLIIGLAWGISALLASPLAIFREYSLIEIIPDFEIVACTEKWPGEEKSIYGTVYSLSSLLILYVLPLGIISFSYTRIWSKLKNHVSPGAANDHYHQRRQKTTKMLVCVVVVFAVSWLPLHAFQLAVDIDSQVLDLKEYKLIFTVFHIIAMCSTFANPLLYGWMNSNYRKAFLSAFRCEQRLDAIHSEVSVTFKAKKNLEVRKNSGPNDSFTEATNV
Assay type: cell-based

Point of comparison: CCNC(=O)C(c1ccccc1)N1CCN(c2ccc(NC(=O)c3ccccc3-c3ccccc3)cc2C#N)CC1 (stereo not drawn), IC50 11 nM. Against it:
- CCOc1ccc(NC(=S)N2CCC(C(O)(c3ccccc3)c3ccccc3)CC2)cc1 — 18-fold higher, 200 nM
- COc1cccnc1C(=O)N1CCN(c2ccc(NC(C)(C)c3ccccc3)cc2Cl)CC1 — 2.3-fold higher, 25 nM
- COC(=O)C(c1ccccc1)N1CCN(c2ccc(NC(=O)c3ccccc3-c3ccncc3)cc2)CC1 (stereo not drawn) — 22-fold higher, 240 nM
- COC(=O)C(c1ccccc1)N1CCN(c2ccc(NC(=O)c3ccccc3-c3ccncc3)cc2F)CC1 (stereo not drawn) — 3.4-fold higher, 37 nM
- COC(=O)C(c1ccccc1)N1CCN(c2ccc(NC(=O)c3ccccc3-c3ccccc3)cc2)CC1 (stereo not drawn) — 48-fold higher, 530 nM
- COC(=O)C(c1ccccc1)N1CCN(c2ccc(NC(=O)c3ccccc3-c3ccccc3)cc2F)CC1 (stereo not drawn) — 4.7-fold higher, 52 nM
- COC(=O)C(c1ccccc1)N1CCN(c2ccc(NC(=O)c3ccccc3-c3ccccc3)cc2C#N)CC1 (stereo not drawn) — 2.3-fold higher, 25 nM
- COC(=O)C(c1ccccc1)N1CCN(c2ccc(NC(=O)c3ccccc3-c3ccccc3)cc2C)CC1 (stereo not drawn) — 9.1-fold higher, 100 nM
- COC(=O)C(c1ccccc1)N1CCN(c2ccc(NC(=O)c3ccccc3-c3cccnc3)cc2)CC1 (stereo not drawn) — 20-fold higher, 220 nM
- COC(=O)C(c1ccccc1)N1CCN(c2ccc(NC(=O)c3ccccc3-c3cccnc3)cc2F)CC1 (stereo not drawn) — 3.6-fold higher, 40 nM
- CCC(CC)C(=O)Nc1ccc(N2CCN(C(C(=O)OC)c3ccccc3)CC2)c(F)c1 (stereo not drawn) — 15-fold higher, 165 nM
- CCNC(=O)C(c1ccccc1)N1CCN(c2ccc(NC(=O)c3ccccc3-c3ccccc3)cc2F)CC1 (stereo not drawn) — 3.2-fold higher, 35 nM
- CCNC(=O)C(c1ccccc1)N1CCN(c2ccc(NC(=O)c3ccccc3-c3cccnc3)cc2F)CC1 (stereo not drawn) — 3.8-fold higher, 42 nM
- CCNC(=O)C(c1ccccc1)N1CCN(c2ccc(NC(=O)c3ccccc3-c3cccnc3)cc2C#N)CC1 (stereo not drawn) — 2.7-fold higher, 30 nM
- CCNC(=O)C(c1ccccc1)N1CCN(c2ccc(NC(=O)C(CC)CC)cc2F)CC1 (stereo not drawn) — 34-fold higher, 370 nM
- CCNC(=O)C(c1ccccc1)N1CCN(c2ccc(NC(=O)C(CC)CC)cc2C#N)CC1 (stereo not drawn) — 14-fold higher, 150 nM
- CCN(CC)C(=O)[C@@H](c1ccccc1)N1CCN(c2ccc(NC(=O)c3ccccc3-c3cccnc3)cc2F)CC1 — within 1.5-fold, 9 nM
- CCN(CC)C(=O)[C@H](c1ccccc1)N1CCN(c2ccc(NC(=O)c3ccccc3-c3cccnc3)cc2F)CC1 — within 1.5-fold, 14 nM
- CCN(CC)C(=O)C(c1ccccc1)N1CCN(c2ccc(NC(=O)c3ccccc3-c3cccnc3)cc2F)CC1 (racemic) — 1.8-fold lower, 6 nM
- CCN(CC)C(=O)C(c1ccccc1)N1CCN(c2ccc(NC(=O)c3ccccc3-c3ccccc3)cc2F)CC1 (racemic) — within 1.5-fold, 10 nM
- CCC(CC)C(=O)Nc1ccc(N2CCN(C(C(=O)N(CC)CC)c3ccccc3)CC2)c(F)c1 (racemic) — 4.5-fold higher, 50 nM
- CCN(CC)C(=O)C(c1ccccc1)N1CCN(c2ccc(NC(=O)c3ccccc3-c3ccccc3)cc2C#N)CC1 (racemic; 28) — 3.4-fold higher, 37 nM
- CCN(CC)C(=O)C(c1ccccc1)N1CCN(c2ccc(NC(=O)c3ccccc3-c3ccccc3)cc2C#N)CC1 (racemic; 30) — within 1.5-fold, 8 nM
- CCC(CC)C(=O)Nc1ccc(N2CCN(C(C(=O)N(CC)CC)c3ccccc3)CC2)c(C#N)c1 (racemic; 32) — 18-fold higher, 200 nM
- CCC(CC)C(=O)Nc1ccc(N2CCN(C(C(=O)N(CC)CC)c3ccccc3)CC2)c(C#N)c1 (racemic; 34) — within 1.5-fold, 13 nM

These compounds were tested against CYP2C9 (Homo sapiens, UniProt P11712) (assay: Inhibition of CYP2C9 at 10 uM).
CYP2C9, sequence (P11712 whole entry): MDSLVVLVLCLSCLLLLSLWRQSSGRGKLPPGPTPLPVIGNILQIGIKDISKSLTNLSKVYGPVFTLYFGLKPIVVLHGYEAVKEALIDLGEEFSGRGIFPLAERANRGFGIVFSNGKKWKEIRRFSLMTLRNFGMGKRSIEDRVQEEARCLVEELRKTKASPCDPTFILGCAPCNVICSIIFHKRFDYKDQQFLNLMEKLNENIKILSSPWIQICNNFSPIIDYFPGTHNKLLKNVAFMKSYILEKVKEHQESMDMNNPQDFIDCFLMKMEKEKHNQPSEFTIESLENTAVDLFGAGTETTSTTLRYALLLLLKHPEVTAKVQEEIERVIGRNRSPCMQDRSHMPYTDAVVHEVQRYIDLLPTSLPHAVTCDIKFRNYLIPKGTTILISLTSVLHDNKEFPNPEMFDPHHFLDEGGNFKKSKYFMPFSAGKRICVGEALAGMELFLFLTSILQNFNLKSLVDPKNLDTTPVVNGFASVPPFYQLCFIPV
Assay type: ADME

Compound CCC(CC)C(=O)Nc1ccc(N2CCN(C(C(=O)N(CC)CC)c3ccccc3)CC2)c(C#N)c1 (racemic; 34) has an inhibition at 10 µM greater than 75%.

These compounds were tested against CYP2D6 (Homo sapiens, UniProt P10635) (assay: Inhibition of CYP2D6 at 10 uM).
CYP2D6, sequence (P10635 whole entry): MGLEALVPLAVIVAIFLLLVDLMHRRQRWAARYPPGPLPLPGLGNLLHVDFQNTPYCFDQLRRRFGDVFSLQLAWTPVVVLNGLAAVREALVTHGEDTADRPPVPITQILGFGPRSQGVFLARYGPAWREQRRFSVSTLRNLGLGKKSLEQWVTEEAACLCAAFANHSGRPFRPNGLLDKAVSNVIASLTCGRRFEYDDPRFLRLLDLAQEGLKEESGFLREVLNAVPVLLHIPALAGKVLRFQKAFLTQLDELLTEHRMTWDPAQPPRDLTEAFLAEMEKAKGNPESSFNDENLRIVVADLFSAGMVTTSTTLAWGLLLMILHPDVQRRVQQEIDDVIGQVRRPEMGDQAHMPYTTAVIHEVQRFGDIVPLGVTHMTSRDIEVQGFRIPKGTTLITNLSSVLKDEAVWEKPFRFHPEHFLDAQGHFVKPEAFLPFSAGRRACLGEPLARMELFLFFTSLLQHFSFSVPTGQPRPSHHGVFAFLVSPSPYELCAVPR
Assay type: ADME

Work on CCC(CC)C(=O)Nc1ccc(N2CCN(C(C(=O)N(CC)CC)c3ccccc3)CC2)c(C#N)c1 (racemic; 34) yielded an inhibition at 10 µM greater than 75%.
